The values that follow come from article PMC11796312, “Multifunctional, Fluorene‐Based Modulator of Cholinergic and GABAergic Neurotransmission as a Novel Drug Candidate for Palliative Treatment of Alzheimer's Disease” (Angewandte Chemie (International Ed. in English), 2024).

The subject of one series is hGAT‐3. As to conditions: cited from earlier work.
Series [1] concerns mice treated with scopolamine. Description: Passive avoidance (PA) task, scopolamine-induced amnesia. The following applies: mouse, in vivo. The class given is in vivo. On the procedure: Animals and housing conditions
In all pharmacodynamic in vivo experiments, except for the Barnes maze (BM) task, adult male Albino Swiss (CD-1) mice weighing between 18 and 22 g and purchased from the Animal Breeding Farm of the Faculty of Pharmacy, Jagiellonian University Medical College were used. In BM task, C57BL/6J mice of the same weight (Animalab, Poland) were used.
Animals were housed in cages (10 mice per cage) at a constant temperature of 22 ± 2 °C, humidity of 55 ± 10%, and a light/dark (12:12) cycle (lights on at 7 AM). Before the experiments, the animals had unlimited access to food and water. Specified conditions for the maintenance of mice were ensured throughout the experiments, including tree bedding (Transwior, Poland) and cage enrichment (tunnels, nesting material, wooden igloos, etc.). […]
doses for behavioral assays. Lower doses were also assessed if at least one of them was […]
On the first day, during the acquisition trial (a conditioning phase), the test compound 6, scopolamine, and vehicle were injected. […] The latency between opening the guillotine gate and the mouse entering the black compartment was measured for each mouse. On the next day, during the retention (drug-off) trial, the mice were placed again into the white compartment for a 30-s habituation period, and the latency to enter the black compartment was measured for each mouse. […]

Series [2] deals with T1, human butyrylcholinesterase (hBuChE) (Homo sapiens, UniProt P06276).
T1 construct: from human plasma was from Vivonics (Bedford, MA, USA); purchased Vivonics (Bedford, MA, USA); host or cells: human plasma
T1 sequence (P06276 29-602): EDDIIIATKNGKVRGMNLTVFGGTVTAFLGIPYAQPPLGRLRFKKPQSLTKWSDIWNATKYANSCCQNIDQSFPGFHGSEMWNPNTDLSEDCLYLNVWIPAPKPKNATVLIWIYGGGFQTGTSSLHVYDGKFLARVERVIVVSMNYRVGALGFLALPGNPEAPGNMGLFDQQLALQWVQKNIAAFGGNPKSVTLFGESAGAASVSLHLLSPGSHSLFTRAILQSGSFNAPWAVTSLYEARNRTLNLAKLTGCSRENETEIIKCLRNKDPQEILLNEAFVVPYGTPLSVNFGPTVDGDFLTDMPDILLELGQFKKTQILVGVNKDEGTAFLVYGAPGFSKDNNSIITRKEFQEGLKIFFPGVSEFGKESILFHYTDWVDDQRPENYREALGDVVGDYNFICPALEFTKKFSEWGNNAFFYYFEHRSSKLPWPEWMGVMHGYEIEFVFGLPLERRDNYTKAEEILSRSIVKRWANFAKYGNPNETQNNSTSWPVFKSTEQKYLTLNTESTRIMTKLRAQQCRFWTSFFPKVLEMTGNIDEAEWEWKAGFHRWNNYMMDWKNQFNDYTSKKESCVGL
Description: biochemical. As to conditions: inhibitor concentration 1 μM; read-out: hBuChE % inh.

The subject of the next series is BuChE. As to conditions: 1 or 5 µM compound (printed '1 or 5 M'), vs DMSO.
Series [3] deals with SH-SY5Y cells. In words: Intracellular O2•-, DHE probe, SH-SY5Y. The class given is cell-based, human.
For series [4], the system named is SH-SY5Y cells. Description: LC-MS determination of total MDA, SH-SY5Y. Format: cell-based, human.
Series [5] has as its system SIM-A9 cells. In words: Intracellular RONS, DCFH-DA probe, SIM-A9. Format: cell-based, mouse.
Series [6] concerns SIM-A9 cells. In words: Intracellular O2•-, DHE probe, SIM-A9. The class given is cell-based, mouse.
For series [7], the system named is mouse microglial cells SIM-A9. Description: MTT cell viability assay, SIM-A9. As to conditions: SIM-A9, 24 h; read-out: IC50 (MTT) ± SEM. The class given is cell-based. The source says: (§1) Human neuroblastoma cells SH-SY5Y and mouse microglial cells SIM-A9 were used to evaluate cell viability, intracellular RONS, and malondialdehyde (MDA; CAS No. 542–78-9).
(§2) SH-SY5y cells were cultivated in Dulbecco's modified Eagle's medium (DMEM; Biosera, Nuaille, France) supplemented with 10% fetal bovine serum (Biosera) and 1% penicillin-streptomycin antibiotic solution (Sigma-Aldrich, St. Louis, MO, USA). The culture medium for SIM-A9 cells was further supplemented with donor horse serum (Biosera). The cells were incubated at 37 °C in a CO2 incubator (BINDER CO2 incubator CB 160, Tuttlingen, Germany) and routinely passaged by trypsinization at 75 –85% confluence.
(§3) Colorimetric Cell Viability Assay
(§4) The toxicological indices IC 50 used in the present study were measured utilizing 3-(4,5-dimethylthiazol-2-yl)-2,5-diphenyl-tetrazolium bromide (MTT) reduction assay after (1 picture or pasted object on this page, not shown here)
(§5) 24 h incubation with tested compounds. […]
(§6) incubation, the cultivation medium containing serially diluted substances was aspirated and replaced with a fresh medium containing MTT at a concentration of 0.5 mg/mL and subsequently incubated at 37 °C for 1 h. […] Cell viability was assessed spectrophotometrically by the amount of formazan produced. Absorbance was measured at 570 nm with 650 nm reference wavelength on Spark (Tecan Group Ltd, Switzerland). […]
For orientation: Tetrazolium dyes change colour on reduction, which living cells bring about.

Series [8] concerns SH-SY5Y cells. Description: Intracellular RONS, DCFH-DA probe, SH-SY5Y. Format: cell-based, human.
Series [9] deals with SIM-A9 cells. In words: LC-MS determination of total MDA, SIM-A9. Format: cell-based, mouse.
Series [10] deals with Human neuroblastoma cells SH-SY5Y. In words: MTT cell viability assay, SH-SY5Y. The class given is cell-based. As to conditions: 24 h, read-out: IC50 (MTT) ± SEM.
Description: as §1, §2, §3, §4, §5, §6

“Also recorded” adds a separate entry of the source. Where two headings read alike, the source gives them in different places.

One may read the IC50 as the point on the concentration scale where inhibition reaches its midpoint. For the molecule `COc1ccc(C(OCCN2CCC[C@H](C(=O)O)C2)(c2ccc(OC)cc2)c2ccc(OC)cc2)cc1` [(S)‐SNAP‐5114, reference compound], the IC50 with hGAT‐3 was 45 µM.
Turning to `O=C(CC(c1ccccc1)c1ccccc1)N[C@@H](Cc1ccccc1)[C@@H](O)CNCc1ccccc1` [Compound I], in the series with hGAT‐3 (earlier screening), the IC50 is 3 µM. For the same molecule, in series [1], the “pro-cognitive effect in passive avoidance task” value was “did not observe pro‐cognitive effects; also recorded: non active”. Also, in [2], the inhibition at 1 µM turned out to be 67.7%.
As to `Nc1c2c(nc3ccccc13)CCCC2` [Tacrine, reference compound], the “Melting temperature (Tm) of BuChE” value in the series on BuChE is on record as “increased Tm of BuChE”.
Regarding `CC(C)(C)OO` [tBHP], the “intracellular O2•-, times higher” value in the series with SH-SY5Y cells [3] (IC50, 1 h) was 1.25 fold; with SH-SY5Y cells [3] (IC50, 4 h) it was 1.23 fold; in the series on SH-SY5Y cells [3] (¼ IC50, 1 h), 1.10 fold; in the series with SH-SY5Y cells [3] (¼ IC50, 4 h), 1.10 fold; in the series on SH-SY5Y cells [3] (½ IC50, 1 h), 1.22 fold; with SH-SY5Y cells [3] (½ IC50, 4 h), 1.16 fold. The “intracellular O2•-, times higher” value came to 1.11 fold in the series with SIM-A9 cells [6] (IC50, 1 h); 1.10 fold in the series with SIM-A9 cells [6] (IC50, 4 h); 1.25 fold with SIM-A9 cells [6] (IC50, 24 h); 1.10 fold in the series on SIM-A9 cells [6] (½ IC50, 1 h); 1.10 fold with SIM-A9 cells [6] (½ IC50, 4 h); 1.32 fold in the series with SIM-A9 cells [6] (½ IC50, 24 h). In addition, the “intracellular O2•-, fold higher” value was determined as 1.11 fold with SH-SY5Y cells [3] (IC50, 24 h); 1.10 fold in the series with SH-SY5Y cells [3] (½ IC50, 24 h); 1.27 fold in the series with SIM-A9 cells [6] (¼ IC50, 24 h). Also, the “MDA level, times higher” value with SH-SY5Y cells [4] (IC50, 1 h) amounted to 1.45 fold; in the series with SH-SY5Y cells [4] (IC50, 24 h), 1.61 fold; in the series with SH-SY5Y cells [4] (¼ IC50, 1 h), 1.23 fold; in the series on SH-SY5Y cells [4] (¼ IC50, 24 h) it was 1.11 fold; with SH-SY5Y cells [4] (½ IC50, 1 h) it was 1.18 fold; with SH-SY5Y cells [4] (½ IC50, 24 h) it was 1.20 fold. Moreover, the “MDA level, times higher” value in the series on SIM-A9 cells [9] (IC50, 4 h) is given as 1.27 fold; in the series with SIM-A9 cells [9] (highest concentration (IC50), 1 h), 1.18 fold; with SIM-A9 cells [9] (¼ IC50, 4 h) it was 1.16 fold; in the series with SIM-A9 cells [9] (½ IC50, 4 h), 1.18 fold. The “MDA level, fold higher” value in the series with SH-SY5Y cells [4] (IC50, 4 h) was found to be 1.45 fold; with SH-SY5Y cells [4] (½ IC50, 4 h), 1.18 fold; with SIM-A9 cells [9] (IC50, 24 h), 1.45 fold; with SIM-A9 cells [9] (½ IC50, 24 h) it was 1.15 fold. Besides, the “intracellular RONS, times higher” value in the series on SIM-A9 cells [5] (conc. = IC50, 1 h) was found to be 1.21 fold. Further, the “intracellular RONS, times lower” value with SIM-A9 cells [5] (conc. = IC50, 24 h) came out at 1.30 fold. The values for the IC50 in [7] and in [10] were 60.4 ± 3.54 µM and 19.9 ± 1.35 µM, respectively. Also, the “intracellular RONS, fold vs untreated control” value in the series with SH-SY5Y cells [8] (conc. = IC50, 1 h) came out at 1.25 fold; in the series with SH-SY5Y cells [8] (conc. = IC50, 4 h), 1.11 fold. Further, in the series with SH-SY5Y cells [8] (conc. = IC50, 24 h), the “intracellular RONS change” value was “decrease of RONS”. For the same molecule, the “intracellular RONS, fold higher” value in the series on SH-SY5Y cells [8] (conc. = ½ IC50, 1 h) came out at 1.12 fold.
